Data on one molecule can be found in patent US12599611B2, “Methods and compositions for treating seizure disorders in pediatric patients” (Neurelis, Inc., priority 2021, dated 2026).

The test system of this assay is beta frequency by EEG. The assay can be described thus: EEG monitoring of beta rhythm / beta frequency after diazepam administration. The note with it: after intranasal administration of 20 mg of diazepam via an intranasal composition.

Take `CN1C(=O)CN=C(c2ccccc2)c2cc(Cl)ccc21` [diazepam, 7-chloro-1,3-dihydro-1-methyl-5-phenyl-1,4-benzodiazepin-2-one]: the “time to changes in beta frequency (EEG)” value was at most 10 min.
